The source of these data is US8377945B2, “Small molecule inhibitors of spleen tyrosine kinase (SYK)” (Rigel Pharmaceuticals Inc., priority 2009, dated 2013).

For assay [1], the system named is Human mast cells (CHMC cells). Nature of the assay: Tryptase release assay (mast cell degranulation induced by anti-IgG FcγR cross-linking). The assay is classed as cell-based. To be noted: IC50 of tryptase release from human mast cells after anti-IgG stimulation, read-out: LD Tryptase. As to the method:
Compounds were assayed for inhibition of mast cell activation induced by FcγR cross-linking by measuring the activity of tryptase released upon degranulation as follows:
Human mast cells were cultured and differentiated from […] progenitor cell as described in U.S. Patent Publication No. 2005-234049, incorporated herein by reference. For example, 65 μl of various concentrations of the compound to be assayed were prepared in MT (137 mM NaCl, 2.7 mM KCl, 1.8 mM CaCl2, 1.0 mM MgCl2, 5.6 mM Glucose, 20 mM Hepes (pH 7.4), 0.1% Bovine Serum Albumin, (Sigma A4503)) containing 2% MeOH and 1% DMSO, or control buffer were added to duplicate 96-well V-bottom plates. Pelleted and resuspended (in warm MT) CHMC cells (65 μl) were added to each 96-well plate, mixed and incubated for 1 hour at 37° C. 25 μl of 6× anti-IgG Rabbit anti-human IgG, Affinity purified (Bethyl Laboratories Cat No. A80-105A3) final concentration 1 μg/ml, was added to the test wells. MT (25 μl) was added to control wells. After a 60-minute incubation at 37° C., cells and cell debris were pelleted by centrifugation at 1000 rpm for 10 min and tryptase and leukotriene C4 levels were measured.
To measure tryptase levels, 25 μl of supernatant from each well was transferred to a fresh 96-well black bottom plate, to which 100 μl of fresh tryptase substrate solution [(Z-Ala-Lys-Arg-AMC2TFA; Enzyme Systems Products, #AMC-246)] 1:2000 in tryptase assay buffer [0.1 M Hepes (pH 7.5), 10% w/v Glycerol, 10 μM Heparin (Sigma H-4898) 0.01% NaN3] was added. After 30 minute incubation at room temperature, the optical density of the plates is measured at 355 nm/460 nm on a spectrophotometric plate reader. Table 2 provides the IC50 values.

Another assay deals with T1, Syk kinase (Homo sapiens, UniProt P43405).
T1 construct: purchased Millipore 14-314
As to the kind of experiment: ELISA-based Syk kinase assay (phosphorylation of HS1 peptide substrate by isolated Syk kinase). The assay is classed as biochemical. To be noted: IC50 of Syk kinase inhibition; 2 μM ATP, 2 μM peptide substrate. As to the method: Compounds were tested for the ability to inhibit Syk kinase catalyzed phosphorylation of a peptide substrate in an assay with isolated Syk kinase.
An assay was carried out in a Costar white 96 well plate (Fisher Scientific, Cat No. 07-200-591) coated overnight with 0.01 mg/ml Neutravidin (Pierce, 100 μl/well) at 4° C. Neutravidin pre-coated 96 well plates were blocked with 2% BSA in PBST buffer for at least 1 hour before starting the assay at room temperature. Serially diluted compound stock solution containing a subject compound was prepared separately in DMSO solution starting from 300 μM and 2 μl of this diluted compound (3% DMSO final concentration) was added directly to neutravidin coated assay plate containing 55.5 μl/well of kinase reaction buffer composed of 20 mM HEPES, pH 7.4, 5 mM MgCl2, 2 mM MnCl2, 1 mM DTT, 0.01% Tween 20 pre-mixed with ATP and kinase substrate (HS1 peptide). Reaction was initiated by adding of 2.5 μl/well Syk kinase (Millipore, Cat No. 14-314) resulting in a final reaction volume of 60 μl and then the reaction was allowed to continue for 30 minutes at room temperature. Final enzyme reaction conditions were 20 mM HEPES, pH 7.4, 5 mM MgCl2, 2 mM MnCl2, 1 mM DTT, 0.01% Tween 20, 0.25 ng Syk, 2 μM ATP, 2 μM peptide substrate (Biotin-EQEDEPEGDYEEVLE-CONH2, SynPep Corporation). After completing the reaction, assay plate was washed three times with PBST and incubated for 1 hour at room temperature with 100 μl/well of phosphopeptide detection antibody solution prepared by mixing 1-1000 diluted mouse anti-pTyr monoclonal antibody (Cell Signal Technology, Cat No. 9411) and 1-1000 diluted goat HRP-conjugated anti-mouse IgG (Jackson Immunoresearch, Cat. No. 115-035-003). Before developing the plate with supersignal ELISA pico chemiluminescent substrate (Pierce), plate was washed three times again with PBST and were read on a SpectraMax M5 microplate reader (Moleculear Devices).

Bounds are passed on as bounds.

Take `N#Cc1cnn2c(Nc3ccc4c(c3)OCCO4)c(-c3ccc4c(c3)NC(=O)CO4)[nH]c12` [Compound 50]: the IC50 in assay [1] was above 5000 µM; on Syk kinase, 0.51 to 2.99 µM.

Consider `COC(=O)c1cccc(Nc2c(-c3ccc4c(c3)NC(=O)CO4)[nH]c3c(C#N)cnn23)c1` [Compound 10], for which the figures for the IC50 (in assay [1]; on Syk kinase) were 11 to 100 µM and 0.51 to 2.99 µM, respectively.

As for `COc1ccc(Nc2c(-c3ccc(S(C)(=O)=O)cc3)[nH]c3c(C#N)cnn23)cc1OC` [Compound 48], the IC50 was below 10 µM in assay [1] and 0.51 to 2.99 µM against Syk kinase.

For `COc1ccc(Nc2c(-c3ccc(C(N)=O)cc3)[nH]c3c(C#N)cnn23)cc1OC` [Compound 103], the IC50 in assay [1] is 11 to 100 µM; against Syk kinase it was below 0.5 µM.

For the molecule `COc1cc(-c2[nH]c3c(C#N)cnn3c2Nc2ccc(CNC(=O)c3cccnc3C)cc2)cc(OC)c1OC` [Compound 152], the values for the IC50 (in assay [1]; against Syk kinase) were above 5000 µM and below 0.5 µM, respectively.

As for `COc1cc(-c2[nH]c3c(C#N)cnn3c2Nc2ccc(Br)cc2)cc(OC)c1OC` [Compound 23], the IC50 is below 10 µM in assay [1] and 0.51 to 2.99 µM against Syk kinase.

For `COC(=O)COc1ccc(-c2[nH]c3c(C#N)cnn3c2Nc2ccc(OC)c(OC)c2)cc1` [Compound 113], the IC50 was below 10 µM in assay [1] and 0.51 to 2.99 µM against Syk kinase.

Consider `N#Cc1cnn2c(Nc3ccc(N4CCOCC4)cc3)c(-c3ccc4c(c3)NC(=O)CO4)[nH]c12` [Compound 43], for which the IC50 fell in the range of 11 to 100 µM in assay [1] and 3 to 25 µM on Syk kinase.

Turning to `COc1cc(Nc2c(-c3cc(OC)c(OC)c(OC)c3)[nH]c3c(C#N)cnn23)ccc1Cl` [Compound 132], the values for the IC50 (in assay [1]; at Syk kinase) were below 10 µM and 0.51 to 2.99 µM, respectively.

Turning to `COc1cc(-c2[nH]c3c(C#N)cnn3c2Nc2ccc(CNC(=O)c3ccc(C#N)nc3)cc2)cc(OC)c1OC` [Compound 151], the IC50 in assay [1] was above 5000 µM; on Syk kinase, 0.51 to 2.99 µM.

Turning to `COc1cc(Nc2c(-c3cc(O)c(OC)c(OC)c3)[nH]c3c(C#N)cnn23)ccc1F` [Compound 118], the results for the IC50 (in assay [1]; against Syk kinase) were below 10 µM and below 0.5 µM, respectively.

`COc1cc(Nc2c(-c3ccc4c(c3)NC(=O)CO4)[nH]c3c(C#N)cnn23)ccc1F` [Compound 109]: the IC50 in assay [1] was 11 to 100 µM; against Syk kinase, 0.51 to 2.99 µM.

In the case of `COc1cc(Nc2c(-c3cc(OC)c(OC)c(OC)c3)[nH]c3c(C#N)cnn23)cc(OC)c1` [Compound 142], the values for the IC50 (in assay [1]; at Syk kinase) were below 10 µM and below 0.5 µM, respectively.

With `COc1cc(-c2[nH]c3c(C#N)cnn3c2Nc2ccc3c(c2)NC(=O)CO3)cc(OC)c1OC` [Compound 137], the IC50 in assay [1] was below 10 µM; on Syk kinase, below 0.5 µM.

For `COc1cc(-c2[nH]c3c(C#N)cnn3c2Nc2ccc(CNC(C)=O)cc2)cc(OC)c1OC` [Compound 72], the IC50 in assay [1] is below 10 µM; at Syk kinase, 0.51 to 2.99 µM.

On to `COc1cc(-c2[nH]c3c(C#N)cnn3c2Nc2ccc(CNC(=O)c3ccccn3)cc2)cc(OC)c1OC` [Compound 149], for which the IC50 in assay [1] is below 10 µM; at Syk kinase, 0.51 to 2.99 µM.

`COc1ccc(Nc2c(-c3ccc4cc[nH]c4c3)[nH]c3c(C#N)cnn23)cc1OC` [Compound 6]: the IC50 is below 10 µM in assay [1] and 0.51 to 2.99 µM on Syk kinase.

With `COc1cc(Nc2c(-c3cc(OC)c(OC)c(OC)c3)[nH]c3c(C#N)cnn23)ccc1F` [Compound 87], the IC50 was below 10 µM in assay [1] and below 0.5 µM at Syk kinase.

With `COc1cc(-c2[nH]c3c(C#N)cnn3c2Nc2cccc(NC(C)=O)c2)cc(OC)c1OC` [Compound 30], the IC50 in assay [1] is below 10 µM; against Syk kinase it was 0.51 to 2.99 µM.

Turning to `CCOc1cc(Nc2c(-c3cc(OC)c(OC)c(OC)c3)[nH]c3c(C#N)cnn23)ccc1F` [Compound 144], the IC50 in assay [1] is below 10 µM; on Syk kinase, 0.51 to 2.99 µM.

For `COc1ccc(Nc2c(-c3ccc4c(c3)OCO4)[nH]c3c(C#N)cnn23)cc1OC` [Compound 51], the IC50 in assay [1] is below 10 µM; at Syk kinase, 0.51 to 2.99 µM.

Take `COc1ccc(Nc2c(-c3cccc(N4CCOCC4)c3)[nH]c3c(C#N)cnn23)cc1OC` [Compound 105]: the IC50 was 11 to 100 µM in assay [1] and 0.51 to 2.99 µM against Syk kinase.

As for `COc1ccc(-c2[nH]c3c(C#N)cnn3c2Nc2ccc(OC)c(OC)c2)cc1F` [Compound 52], the IC50 is above 5000 µM in assay [1] and 3 to 25 µM against Syk kinase.

As for `COc1cc(-c2[nH]c3c(C#N)cnn3c2Nc2ccc(CNC(=O)c3cccnc3OC)cc2)cc(OC)c1OC` [Compound 153], the IC50 was below 10 µM in assay [1] and below 0.5 µM at Syk kinase.

As for `CC(=O)Nc1cccc(Nc2c(-c3ccc4cc[nH]c4c3)[nH]c3c(C#N)cnn23)c1` [Compound 47], the IC50 in assay [1] is below 10 µM; at Syk kinase, 0.51 to 2.99 µM.

Consider `COc1cc(-c2[nH]c3c(C#N)cnn3c2Nc2ccc3c(c2)OCCO3)cc(OC)c1OC` [Compound 49], for which the IC50 is below 10 µM in assay [1] and 0.51 to 2.99 µM at Syk kinase.

On to `COc1ccc(Nc2c(-c3ccc(OCCO)c(OC)c3)[nH]c3c(C#N)cnn23)cc1OC` [Compound 101], for which the IC50 in assay [1] is below 10 µM; against Syk kinase, 0.51 to 2.99 µM.

With `COc1cc(-c2[nH]c3c(C#N)cnn3c2Nc2ccc(CNC(=O)c3ccc(C)nc3)cc2)cc(OC)c1OC` [Compound 154], the IC50 in assay [1] was 11 to 100 µM; against Syk kinase, 0.51 to 2.99 µM.

For the molecule `COc1ccc(Nc2c(-c3ccc(OCC(N)=O)c(OC)c3)[nH]c3c(C#N)cnn23)cc1OC` [Compound 135], the IC50 is below 10 µM in assay [1] and below 0.5 µM against Syk kinase.

On to `COc1ccc(Nc2c(-c3ccc(OCCN4CCOCC4)cc3)[nH]c3c(C#N)cnn23)cc1OC` [Compound 124], for which the values for the IC50 (in assay [1]; at Syk kinase) were below 10 µM and 0.51 to 2.99 µM, respectively.

With `COc1ccc(Nc2c(-c3cc(C)c(OC)c(C)c3)[nH]c3c(C#N)cnn23)cc1OC` [Compound 136], the IC50 in assay [1] was below 10 µM; on Syk kinase, 0.51 to 2.99 µM.

For the molecule `COc1cc(-c2[nH]c3c(C#N)cnn3c2Nc2ccc(F)c(F)c2)cc(OC)c1OC` [Compound 64], the results for the IC50 (in assay [1]; on Syk kinase) were below 10 µM and 0.51 to 2.99 µM, respectively.

As to `COCCOc1ccc(-c2[nH]c3c(C#N)cnn3c2Nc2ccc(F)c(OC)c2)cc1OC` [Compound 122], the IC50 is below 10 µM in assay [1] and 0.51 to 2.99 µM at Syk kinase.

Regarding `COc1ccc(Nc2c(-c3ccc(OC)c(OCC(N)=O)c3)[nH]c3c(C#N)cnn23)cc1OC` [Compound 125], the results for the IC50 (in assay [1]; against Syk kinase) were below 10 µM and 0.51 to 2.99 µM, respectively.

As to `COCCOc1ccc(-c2[nH]c3c(C#N)cnn3c2Nc2ccc(OC)c(OC)c2)cc1OC` [Compound 108], the IC50 in assay [1] is below 10 µM; on Syk kinase it was below 0.5 µM.

As to `COc1ccc(Nc2c(-c3cc(OC)c(OC)c(OC)c3)[nH]c3c(C#N)cnn23)cc1F` [Compound 127], the IC50 is below 10 µM in assay [1] and below 0.5 µM on Syk kinase.

Consider `COc1cc(Nc2c(-c3ccc(OCCO)c(OC)c3)[nH]c3c(C#N)cnn23)ccc1F` [Compound 116], for which the IC50 in assay [1] was below 10 µM; against Syk kinase it was below 0.5 µM.

For the molecule `COc1ccc2c(-c3[nH]c4c(C#N)cnn4c3Nc3ccc(OC)c(OC)c3)c[nH]c2c1` [Compound 24], the IC50 is below 10 µM in assay [1] and 0.51 to 2.99 µM on Syk kinase.

With `COc1ccc(-c2[nH]c3c(C#N)cnn3c2Nc2cccc(NC(C)=O)c2)cc1OC` [Compound 32], the IC50 is below 10 µM in assay [1] and 0.51 to 2.99 µM at Syk kinase.

In the case of `COc1ccc(Nc2c(-c3ccc(OCCN4CCCC4=O)cc3)[nH]c3c(C#N)cnn23)cc1OC` [Compound 107], the IC50 is below 10 µM in assay [1] and 0.51 to 2.99 µM on Syk kinase.
